Experimental findings from patent US10570116B2, “1,4-dicarbonyl-piperidyl derivatives” (Merck Patent GmbH, priority 2015, dated 2020) are described below.

The test system of one assay is Tankyrases. As to the kind of experiment: Measurement of cellular inhibition of Tankyrase (Axin2 level, Luminex based assay, DLD1 cells). The format is cell-based. As to conditions: increase of Axin2 level, 24 hours, read-out: EC50 [M] TNKS cellular assay.
The target of the next assay is TNKS2 (Homo sapiens (Human), UniProt Q9H2K2). As to the kind of experiment: biochemical. It is filed as biochemical.
The next assay concerns the target TNKS1 (Homo sapiens (Human), UniProt O95271). As to the kind of experiment: biochemical. The format is biochemical.
The mark [1] stands for this setting: GST-tagged Tnks-2 (873-1166 aa), read-out: IC50 [M] TNKS2 ELISA.
[2] abbreviates: GST-tagged Tnks-1 (1023-1327 aa), read-out: IC50 [M] TNKS1 ELISA.

Read-outs that look alike come from different tables or passages of the source.

As to `CC(C)n1cc(C(=O)C2CCN(C(=O)CC(C)(C)Cc3nc4c(ccn4C)c(=O)[nH]3)CC2)cn1` [Compound C19, 2-{4-[4-(1-Isopropyl-1H-pyrazole-4-carbonyl)-piperidin-1-yl]-2,2-dimethyl-4-oxo-butyl}-7-methyl-3,7-dihydro-pyrrolo[2,3-d]pyrimidin-4-one], the EC50 in the assay on Tankyrases came to 9.3e-09 M. The half-inhibitory concentration (IC50) was found to be 5.8e-10 M on TNKS2 (setting [1]) and 1.3e-09 M at TNKS1 (setting [2]). Turning to `CC(C)[C@H](CC(=O)N1CCC(C(=O)c2cnn(C)c2)CC1)Cc1nc2ccccc2c(=O)[nH]1` [Compound C8, 2-((S)-3-Methyl-2-{2-[4-(1-methyl-1H-pyrazole-4-carbonyl)-piperidin-1-yl]-2-oxo-ethyl}-butyl)-3H-quinazolin-4-one], the EC50 in the assay on Tankyrases was 9.2e-09 M. Same read-out and setting: in the case of `COC(=O)c1cccc(C(=O)C2CCN(C(=O)C[C@H](C)Cc3nc4c(C)cccc4c(=O)[nH]3)CC2)c1` [Compound C42, 3-{1-[(R)-3-Methyl-4-(8-methyl-4-oxo-3,4-dihydro-quinazolin-2-yl)-butyryl]-piperidine-4-carbonyl}-benzoic Acid Methyl Ester] it was 2.5e-08 M. With `COC(=O)c1cccc(C(=O)C2CCN(C(=O)CC(C)(C)Cc3nc4ccccc4c(=O)[nH]3)CC2)c1` [Compound C34, 3-{1-[3,3-Dimethyl-4-(4-oxo-3,4-dihydro-quinazolin-2-yl)-butyryl]-piperidine-4-carbonyl}-benzoic Acid Methyl Ester], the EC50 in the assay with Tankyrases was 9.9e-09 M. The IC50 at TNKS2 (setting [1]) was 5e-10 M; on TNKS1 (setting [2]), 4.8e-10 M. For the molecule `CC(C)[C@@H](CC(=O)N1CCC(C(=O)c2cnn(C)c2)CC1)Cc1nc2ccccc2c(=O)[nH]1` [Compound C9, 2-((R)-3-Methyl-2-{2-[4-(1-methyl-1H-pyrazole-4-carbonyl)-piperidin-1-yl]-2-oxo-ethyl}-butyl)-3H-quinazolin-4-one], in the assay on Tankyrases, the concentration giving a half-maximal response (EC50) is 1.4e-07 M.

With `CC(C)CC(CC(=O)N1CCC(C(=O)c2cnn(C)c2)CC1)Cc1nc2ccccc2c(=O)[nH]1` (stereo in doubt) [Compound C11, 2-((R)-4-Methyl-2-{2-[4-(1-methyl-1H-pyrazole-4-carbonyl)-piperidin-1-yl]-2-oxo-ethyl}-pentyl)-3H-quinazolin-4-one], the EC50 with Tankyrases worked out at 5e-09 M. `Cn1cc(C(=O)C2CCN(C(=O)CCC(C)(C)c3nc4ccccc4c(=O)[nH]3)CC2)cn1` [Compound C14, 2-{1,1-Dimethyl-4-[4-(1-methyl-1H-pyrazole-4-carbonyl)-piperidin-1-yl]-4-oxo-butyl}-3H-quinazolin-4-one]: the IC50 on TNKS2 (setting [1]) was 4.4e-08 M; at TNKS1 (setting [2]), 6.3e-08 M. For the molecule `CC(C)(CC(=O)N1CCC(C(=O)c2ccc(C(=O)O)cc2)CC1)Cc1cc2ccccc2c(=O)[nH]1` [Compound C52, 4-{1-[3,3-Dimethyl-4-(1-oxo-1,2-dihydro-isoquinolin-3-yl)-butyryl]-piperidine-4-carbonyl}-benzoic Acid], the EC50 in the assay with Tankyrases turned out to be 8e-08 M. In addition, the IC50 was found to be 2.5e-10 M on TNKS2 (setting [1]) and 3.3e-10 M on TNKS1 (setting [2]).

On to `CC(C)CC(CC(=O)N1CCC(C(=O)c2cnn(C)c2)CC1)Cc1nc2ccccc2c(=O)[nH]1` (stereo in doubt) [Compound C10, 2-((S)-4-Methyl-2-{2-[4-(1-methyl-1H-pyrazole-4-carbonyl)-piperidin-1-yl]-2-oxo-ethyl}-pentyl)-3H-quinazolin-4-one], for which, in the assay with Tankyrases, the EC50 is 9e-08 M. For `Cc1cccc2c(=O)[nH]c(CC(C)(C)CC(=O)N3CCC(C(=O)c4cccc(C(=O)O)c4)CC3)nc12` [Compound C37, 3-{1-[3,3-Dimethyl-4-(8-methyl-4-oxo-3,4-dihydro-quinazolin-2-yl)-butyryl]-piperidine-4-carbonyl}-benzoic Acid], the EC50 in the assay on Tankyrases was determined as 4.8e-07 M. The same measure, in the same setting: in the case of `Cc1cccc2c(=O)[nH]c(C[C@H](C)CC(=O)N3CCC(C(=O)c4cccc(C(=O)O)c4)CC3)nc12` [Compound C45, 3-{1-[(S)-3-Methyl-4-(8-methyl-4-oxo-3,4-dihydro-quinazolin-2-yl)-butyryl]-piperidine-4-carbonyl}-benzoic acid] it was 8.9e-08 M; in that of `CC(C)n1cc(C(=O)C2CCN(C(=O)C[C@@H](C)Cc3nc4ccccc4c(=O)[nH]3)CC2)cn1` [Compound C4, 2-{(S)-4-[4-(1-Isopropyl-1H-pyrazole-4-carbonyl)-piperidin-1-yl]-2-methyl-4-oxo-butyl}-3H-quinazolin-4-one], 4.7e-09 M. On to `Cn1cc(C(=O)C2CCN(C(=O)CC3(Cc4nc5ccccc5c(=O)[nH]4)CC3)CC2)cn1` [Compound C12, 2-(1-{2-[4-(1-Methyl-1H-pyrazole-4-carbonyl)-piperidin-1-yl]-2-oxo-ethyl}-cyclopropylmethyl)-3H-quinazolin-4-one], for which the EC50 in the assay on Tankyrases was 2.3e-08 M. For the same molecule, the IC50 on TNKS2 (setting [1]) turned out to be 1e-09 M; at TNKS1 (setting [2]) it was 2.2e-09 M. Take `Cc1cc(C(=O)C2CCN(C(=O)CC(C)(C)Cc3nc4ccccc4c(=O)[nH]3)CC2)ccc1C(=O)O` [Compound C39, 4-{1-[3,3-Dimethyl-4-(4-oxo-3,4-dihydro-quinazolin-2-yl)-butyryl]-piperidine-4-carbonyl}-2-methyl-benzoic Acid]: the EC50 in the assay with Tankyrases turned out to be 1.3e-07 M. For the same molecule, the figures for the IC50 on TNKS2 (setting [1]) and at TNKS1 (setting [2]) were 6.1e-10 M and 4.3e-10 M, respectively.

Take `CN(CCc1nc2ccccc2c(=O)[nH]1)C(=O)N1CCC(C(=O)c2cnn(C)c2)CC1` [Compound C31, 4-(1-Methyl-1H-pyrazole-4-carbonyl)-piperidine-1-carboxylic Acid methyl-[2-(4-oxo-3,4-dihydro-quinazolin-2-yl)-ethyl]-amide]: in the assay with Tankyrases, the EC50 came out at 2.3e-08 M. Moreover, the values for the IC50 on TNKS2 (setting [1]) and on TNKS1 (setting [2]) were 2.2e-09 M and 3e-09 M, respectively. For `CN(C)Cc1ccc(C(=O)C2CCN(C(=O)CC(C)(C)Cc3nc4ccccc4c(=O)[nH]3)CC2)cc1` [Compound C48, 2-{4-[4-(4-Dimethylaminomethyl-benzoyl)-piperidin-1-yl]-2,2-dimethyl-4-oxo-butyl}-3H-quinazolin-4-one], in that order: 1.3e-07 M, 5.3e-09 M and 1.4e-08 M.

For the molecule `CC(C)(CC(=O)N1CCC(C(=O)c2ccc(C(=O)O)cc2)CC1)Cc1nc2ccccc2c(=O)[nH]1` [Compound C33, 4-{1-[3,3-Dimethyl-4-(4-oxo-3,4-dihydro-quinazolin-2-yl)-butyryl]-piperidine-4-carbonyl}-benzoic Acid], the concentration giving a half-maximal response (EC50) in the assay on Tankyrases stood at 1.5e-07 M. In addition, the IC50 is 4.5e-10 M at TNKS2 (setting [1]) and 5.1e-10 M at TNKS1 (setting [2]).

`COc1ccc(C(=O)C2CCN(C(=O)COCc3nc4ccccc4c(=O)[nH]3)CC2)cc1` [Compound C23, 2-{2-[4-(4-Methoxy-benzoyl)-piperidin-1-yl]-2-oxo-ethoxymethyl}-3H-quinazolin-4-one]: the EC50 in the assay with Tankyrases was determined as 2.6e-08 M. The values for the IC50 at TNKS2 (setting [1]) and at TNKS1 (setting [2]) were 2.1e-09 M and 6.3e-09 M, respectively. With `C[C@@H](CC(=O)N1CCC(C(=O)c2cnn(C)c2)CC1)Cc1nc2ccccc2c(=O)[nH]1` [Compound C3, 2-{(R)-2-Methyl-4-[4-(1-methyl-1H-pyrazole-4-carbonyl)-piperidin-1-yl]-4-oxo-butyl}-3H-quinazolin-4-one], the EC50 in the assay with Tankyrases was 3e-08 M. Same read-out and setting: in the case of `COC(=O)c1cccc(C(=O)C2CCN(C(=O)C[C@@H](C)Cc3nc4c(C)cccc4c(=O)[nH]3)CC2)c1` [Compound C43, 3-{1-[(S)-3-Methyl-4-(8-methyl-4-oxo-3,4-dihydro-quinazolin-2-yl)-butyryl]-piperidine-4-carbonyl}-benzoic Acid Methyl Ester] it was 4.7e-10 M; in that of `CC(C)(CC(=O)N1CCC(C(=O)c2cccc(C(=O)O)c2)CC1)Cc1nc2ccccc2c(=O)[nH]1` [Compound C35, 3-{1-[3,3-Dimethyl-4-(4-oxo-3,4-dihydro-quinazolin-2-yl)-butyryl]-piperidine-4-carbonyl}-benzoic Acid], 5.5e-06 M. For `COc1ccc(C(=O)C2CCN(C(=O)NCCc3nc4ccccc4c(=O)[nH]3)CC2)cc1` [Compound C29, 4-(4-Methoxy-benzoyl)-piperidine-1-carboxylic acid [2-(4-oxo-3,4-dihydro-quinazolin-2-yl)-ethyl]-amide], the IC50 at TNKS2 (setting [1]) amounted to 8.4e-10 M; on TNKS1 (setting [2]), 1.8e-09 M. In the case of `Cc1cccc2c(=O)[nH]c(C[C@@H](C)CC(=O)N3CCC(C(=O)c4cccc(C(=O)O)c4)CC3)nc12` [Compound C44, 3-{1-[(R)-3-Methyl-4-(8-methyl-4-oxo-3,4-dihydro-quinazolin-2-yl)-butyryl]-piperidine-4-carbonyl}-benzoic Acid], the EC50 in the assay with Tankyrases came out at 5.3e-06 M. Same read-out and setting: in the case of `C[C@H](CC(=O)N1CCC(C(=O)c2cnn(C)c2)CC1)Cc1nc2ccccc2c(=O)[nH]1` [Compound C2, 2-{(S)-2-Methyl-4-[4-(1-methyl-1H-pyrazole-4-carbonyl)-piperidin-1-yl]-4-oxo-butyl}-3H-quinazolin-4-one] it was 4.7e-09 M.

Turning to `COc1ccc(C(=O)C2CCN(C(=O)N(C)CCc3nc4ccccc4c(=O)[nH]3)CC2)cc1` [Compound C30, 4-(4-Methoxy-benzoyl)-piperidine-1-carboxylic acid methyl-[2-(4-oxo-3,4-dihydro-quinazolin-2-yl)-ethyl]-amide], the IC50 at TNKS2 (setting [1]) is 5.7e-10 M; on TNKS1 (setting [2]), 6.2e-10 M. With `Cn1cc(C(=O)C2CCN(C(=O)COCc3nc4c(F)cc(F)cc4c(=O)[nH]3)CC2)cn1` [Compound C27, 6,8-Difluoro-2-{2-[4-(1-methyl-1H-pyrazole-4-carbonyl)-piperidin-1-yl]-2-oxo-ethoxymethyl}-3H-quinazolin-4-one], the IC50 against TNKS2 was 1.3e-08 M; on TNKS1 it was 2.9e-08 M. `CC(C)n1cc(C(=O)C2CCN(C(=O)C[C@H](C)Cc3nc4ccccc4c(=O)[nH]3)CC2)cn1` [Compound C5, 2-{(R)-4-[4-(1-Isopropyl-1H-pyrazole-4-carbonyl)-piperidin-1-yl]-2-methyl-4-oxo-butyl}-3H-quinazolin-4-one]: the EC50 with Tankyrases was determined as 3.9e-08 M.
